Measurements reported in ChEMBL document CHEMBL2069245 (Bioorg Med Chem Lett, 2012).
In brackets after ≈: the same amount, converted by molar mass.

Legend:
[1] = biological target: T1, Neuropeptide Y receptor type 5 (Mus musculus, UniProt O70342); assay: Displacement of [125I]PYY from mouse NPY Y5 receptor
T1 sequence (O70342 whole entry): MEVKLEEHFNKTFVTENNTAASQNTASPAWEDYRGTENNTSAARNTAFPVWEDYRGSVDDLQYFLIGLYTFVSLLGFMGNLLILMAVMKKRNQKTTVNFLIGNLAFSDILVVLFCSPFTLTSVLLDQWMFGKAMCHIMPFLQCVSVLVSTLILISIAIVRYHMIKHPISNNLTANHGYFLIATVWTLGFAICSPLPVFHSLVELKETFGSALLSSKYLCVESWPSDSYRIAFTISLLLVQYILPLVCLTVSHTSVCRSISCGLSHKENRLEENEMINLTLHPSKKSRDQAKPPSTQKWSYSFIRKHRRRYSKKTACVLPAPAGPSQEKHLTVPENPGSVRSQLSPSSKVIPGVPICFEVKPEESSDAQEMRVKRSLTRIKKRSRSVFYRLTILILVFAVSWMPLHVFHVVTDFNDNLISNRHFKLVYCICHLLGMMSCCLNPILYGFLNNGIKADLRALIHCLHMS

[2] = biological target: T2, Cytochrome P450 1A2 (Homo sapiens, UniProt P05177)
T2 sequence (P05177 whole entry): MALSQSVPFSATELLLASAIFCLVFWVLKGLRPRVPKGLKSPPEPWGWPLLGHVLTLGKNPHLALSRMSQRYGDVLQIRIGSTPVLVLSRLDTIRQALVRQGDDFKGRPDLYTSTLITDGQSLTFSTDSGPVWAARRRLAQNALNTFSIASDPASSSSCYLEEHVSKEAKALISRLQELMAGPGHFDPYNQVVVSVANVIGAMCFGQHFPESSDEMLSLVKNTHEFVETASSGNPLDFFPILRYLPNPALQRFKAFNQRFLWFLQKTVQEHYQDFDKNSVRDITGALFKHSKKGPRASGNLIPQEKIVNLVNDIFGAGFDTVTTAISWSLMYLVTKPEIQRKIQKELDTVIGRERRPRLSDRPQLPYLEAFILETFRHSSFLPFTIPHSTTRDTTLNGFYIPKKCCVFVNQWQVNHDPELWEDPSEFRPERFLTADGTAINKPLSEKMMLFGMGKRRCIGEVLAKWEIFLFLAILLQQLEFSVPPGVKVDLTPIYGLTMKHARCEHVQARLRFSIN

[3] = biological target: Cytochrome P450 3A4 (Homo sapiens, UniProt P08684)
Sequence of Cytochrome P450 3A4 (P08684 whole entry): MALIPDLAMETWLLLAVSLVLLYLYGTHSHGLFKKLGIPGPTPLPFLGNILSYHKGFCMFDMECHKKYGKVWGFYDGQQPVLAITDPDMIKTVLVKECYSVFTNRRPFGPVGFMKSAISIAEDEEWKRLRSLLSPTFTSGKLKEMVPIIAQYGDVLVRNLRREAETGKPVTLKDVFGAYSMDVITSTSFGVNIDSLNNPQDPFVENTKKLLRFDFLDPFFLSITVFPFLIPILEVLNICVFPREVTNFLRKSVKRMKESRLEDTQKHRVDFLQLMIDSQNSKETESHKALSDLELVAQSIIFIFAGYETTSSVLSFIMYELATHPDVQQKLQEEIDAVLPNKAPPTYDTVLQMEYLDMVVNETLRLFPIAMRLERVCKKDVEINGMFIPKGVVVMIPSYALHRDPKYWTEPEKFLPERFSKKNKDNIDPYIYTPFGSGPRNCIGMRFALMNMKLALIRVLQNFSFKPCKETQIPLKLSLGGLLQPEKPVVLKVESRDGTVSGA

[4] = physchem; conditions: 1% DMSO, pH 6.8
[5] = biological target: Cytochrome P450 2D6 (Homo sapiens, UniProt P10635)
Sequence of Cytochrome P450 2D6 (P10635 whole entry): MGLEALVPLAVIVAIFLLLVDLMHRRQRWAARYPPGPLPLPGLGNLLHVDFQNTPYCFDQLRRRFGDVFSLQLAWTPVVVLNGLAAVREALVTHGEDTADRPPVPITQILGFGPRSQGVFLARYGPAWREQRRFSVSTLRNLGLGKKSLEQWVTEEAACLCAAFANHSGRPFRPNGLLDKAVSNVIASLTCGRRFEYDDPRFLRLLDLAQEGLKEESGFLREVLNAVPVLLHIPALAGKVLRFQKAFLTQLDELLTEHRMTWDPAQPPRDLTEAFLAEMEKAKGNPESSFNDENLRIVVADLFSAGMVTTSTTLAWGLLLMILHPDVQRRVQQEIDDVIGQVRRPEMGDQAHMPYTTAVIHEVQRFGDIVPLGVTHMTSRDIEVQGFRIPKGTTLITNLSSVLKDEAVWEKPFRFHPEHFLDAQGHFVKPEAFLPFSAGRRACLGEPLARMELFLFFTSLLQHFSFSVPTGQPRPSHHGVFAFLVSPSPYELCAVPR

[6] = biological target: Cytochrome P450 2C19 (Homo sapiens, UniProt P33261)
Sequence of Cytochrome P450 2C19 (P33261 whole entry): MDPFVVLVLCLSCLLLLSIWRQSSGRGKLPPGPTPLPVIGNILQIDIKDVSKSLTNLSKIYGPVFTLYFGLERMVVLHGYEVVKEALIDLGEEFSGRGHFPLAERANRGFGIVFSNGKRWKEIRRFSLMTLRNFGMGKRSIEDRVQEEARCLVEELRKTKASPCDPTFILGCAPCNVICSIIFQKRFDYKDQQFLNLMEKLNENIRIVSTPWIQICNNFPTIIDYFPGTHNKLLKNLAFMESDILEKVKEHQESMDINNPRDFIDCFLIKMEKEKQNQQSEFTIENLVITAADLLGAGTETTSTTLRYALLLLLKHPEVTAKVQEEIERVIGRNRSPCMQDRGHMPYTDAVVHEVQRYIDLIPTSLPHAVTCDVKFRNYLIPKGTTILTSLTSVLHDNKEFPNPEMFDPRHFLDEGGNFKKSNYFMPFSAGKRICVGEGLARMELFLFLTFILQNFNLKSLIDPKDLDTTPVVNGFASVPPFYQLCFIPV

[7] = biological target: Cytochrome P450 2C9 (Homo sapiens, UniProt P11712)
Sequence of Cytochrome P450 2C9 (P11712 whole entry): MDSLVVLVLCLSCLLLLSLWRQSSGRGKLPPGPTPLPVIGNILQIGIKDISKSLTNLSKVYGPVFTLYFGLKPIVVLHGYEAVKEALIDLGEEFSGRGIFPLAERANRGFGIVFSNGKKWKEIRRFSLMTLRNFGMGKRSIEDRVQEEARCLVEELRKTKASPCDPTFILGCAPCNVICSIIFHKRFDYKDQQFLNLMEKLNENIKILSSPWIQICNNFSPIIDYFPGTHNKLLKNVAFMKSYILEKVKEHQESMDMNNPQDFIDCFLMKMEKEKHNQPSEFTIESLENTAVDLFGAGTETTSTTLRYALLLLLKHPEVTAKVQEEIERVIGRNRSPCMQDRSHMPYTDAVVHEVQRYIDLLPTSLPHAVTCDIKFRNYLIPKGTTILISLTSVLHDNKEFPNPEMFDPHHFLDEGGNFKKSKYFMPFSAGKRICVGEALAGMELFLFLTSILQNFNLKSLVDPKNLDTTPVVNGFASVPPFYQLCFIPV

[8] = in vitro; conditions: rat, liver microsomes
[9] = in vitro; conditions: human, liver microsomes

CCCS(=O)(=O)c1ccc2nc(-c3cccc(OC(F)(F)F)c3)[nH]c2c1
IC50 [1]: 0.0019 µM

CCS(=O)(=O)c1ccc2[nH]c(-c3cccc(-c4ccccc4)c3Cl)nc2c1
IC50 [2]: 3 µM
IC50 [3]: 3.8 µM
solubility kinetic [4]: 1.5 µM (≈ 0.595 µg/mL)
IC50 [5]: 18 µM
IC50 [1]: 0.0405 µM

CCCS(=O)(=O)c1ccc2[nH]c(-c3cccn(-c4ccccc4)c3=O)nc2c1
IC50 [2]: > 20 µM
IC50 [3]: > 20 µM
IC50 [6]: > 20 µM
IC50 [7]: > 20 µM
IC50 [5]: > 20 µM

CCS(=O)(=O)c1ccc2nc(-c3ccc(F)c(-c4ccccc4)c3)[nH]c2c1
IC50 [2]: 3.4 µM
IC50 [3]: 5.6 µM
solubility kinetic [4]: 0.2 µM (≈ 0.0761 µg/mL)
IC50 [5]: 16 µM
IC50 [1]: 0.00016 µM

CCCS(=O)(=O)c1ccc2nc(-c3cccc(C(F)(F)F)c3)[nH]c2c1
IC50 [2]: 0.4 µM
IC50 [3]: 20 µM
IC50 [5]: > 20 µM

CCS(=O)(=O)c1ccc2[nH]c(-c3cncc(-c4ccccc4)c3)nc2c1
IC50 [2]: 6.3 µM
IC50 [3]: 7.8 µM
IC50 [5]: > 20 µM

CCS(=O)(=O)c1ccc2[nH]c(-c3cccc(-c4ccccc4)c3)nc2c1
IC50 [1]: 0.00046 µM

CCS(=O)(=O)c1ccc2nc(-c3cc(-c4ccccc4)ccn3)[nH]c2c1
IC50 [1]: 0.00055 µM

CCCS(=O)(=O)c1ccc2[nH]c(-c3ccccc3-c3ccccc3)nc2c1
IC50 [2]: > 20 µM
IC50 [3]: 11 µM
IC50 [6]: > 20 µM
IC50 [7]: 4.5 µM
solubility kinetic [4]: 23.6 µM (≈ 8.88 µg/mL)
IC50 [5]: 15 µM
IC50 [1]: 4.06 µM

CCCS(=O)(=O)c1ccc2[nH]c(-c3ccc(=O)n(-c4ccccc4)c3)nc2c1
IC50 [2]: > 20 µM
IC50 [3]: > 20 µM
IC50 [6]: > 20 µM
IC50 [7]: > 20 µM
remaining at 0.5 h [8]: 78.6%
remaining at 0.5 h [9]: 88.5%
IC50 [5]: > 20 µM

CC(C)(C)S(=O)(=O)c1ccc2nc(-c3ccc(=O)n(-c4ccccc4)c3)[nH]c2c1
IC50 [2]: > 20 µM
IC50 [3]: > 20 µM
remaining at 0.5 h [8]: > 99.9%
solubility kinetic [4]: 9.4 µM (≈ 3.83 µg/mL)
remaining at 0.5 h [9]: 94.2%
IC50 [5]: > 20 µM
IC50 [1]: 0.0075 µM

CCCS(=O)(=O)c1ccc2nc(-c3ccccc3)[nH]c2c1
IC50 [2]: 2.9 µM
IC50 [3]: > 20 µM
solubility kinetic [4]: > 50 µM
IC50 [5]: > 20 µM
IC50 [1]: 4.66 µM

CCS(=O)(=O)c1ccc2[nH]c(-c3ccc(Cl)c(-c4ccccc4)c3)nc2c1
IC50 [2]: 8.5 µM
IC50 [3]: 2.6 µM
IC50 [5]: 18 µM
IC50 [1]: 0.00016 µM

CCS(=O)(=O)c1ccc2[nH]c(-c3cc(-c4ccccc4)ccc3F)nc2c1
IC50 [1]: 0.00054 µM

CCS(=O)(=O)c1ccc2[nH]c(-c3ccnc(-c4ccccc4)c3)nc2c1
IC50 [2]: 3.4 µM
IC50 [3]: 8.7 µM
solubility kinetic [4]: 20.3 µM (≈ 7.38 µg/mL)
IC50 [5]: > 20 µM
IC50 [1]: 0.00031 µM

CCCS(=O)(=O)c1ccc2[nH]c(-c3cccc(-c4ccccc4)c3)nc2c1
IC50 [2]: 2.7 µM
IC50 [3]: 6 µM
remaining at 0.5 h [8]: 57.1%
solubility kinetic [4]: 0.5 µM (≈ 0.188 µg/mL)
remaining at 0.5 h [9]: 68.6%
IC50 [5]: > 20 µM
IC50 [1]: 0.00043 µM

CCS(=O)(=O)c1ccc2nc(-c3cc(-c4ccccc4)ccc3Cl)[nH]c2c1
IC50 [2]: 0.4 µM
IC50 [3]: 5 µM
solubility kinetic [4]: 0.4 µM (≈ 0.159 µg/mL)
IC50 [5]: 15 µM
IC50 [1]: 0.0311 µM

CCS(=O)(=O)c1ccc2nc(-c3cc(-c4ccccc4)ccc3C)[nH]c2c1
IC50 [2]: 0.4 µM
solubility kinetic [4]: 0.5 µM (≈ 0.188 µg/mL)
IC50 [5]: 14 µM
IC50 [1]: 0.383 µM

CCCS(=O)(=O)c1ccc2nc(-c3ccc(-c4ccccc4)cc3)[nH]c2c1
IC50 [2]: > 20 µM
IC50 [3]: 2.9 µM
IC50 [5]: 15 µM

CCS(=O)(=O)c1ccc2nc(-c3cccc(-c4ccccc4)c3F)[nH]c2c1
IC50 [2]: 1.1 µM
IC50 [3]: 6.6 µM
solubility kinetic [4]: 0.6 µM (≈ 0.228 µg/mL)
IC50 [5]: > 20 µM
IC50 [1]: 0.0027 µM

O=c1ccc(-c2nc3ccc(S(=O)(=O)C(F)(F)F)cc3[nH]2)cn1-c1ccccc1
IC50 [1]: 0.0025 µM

CCCS(=O)(=O)c1ccc2nc(-c3cn(-c4ccccc4)ccc3=O)[nH]c2c1
IC50 [2]: > 20 µM
IC50 [3]: > 20 µM
IC50 [6]: > 20 µM
IC50 [7]: > 20 µM
solubility kinetic [4]: 2 µM (≈ 0.787 µg/mL)
IC50 [5]: > 20 µM
IC50 [1]: 0.579 µM

CCS(=O)(=O)c1ccc2nc(-c3ccc(C)c(-c4ccccc4)c3)[nH]c2c1
IC50 [2]: 3.2 µM
IC50 [3]: 5.7 µM
IC50 [5]: > 20 µM

CCS(=O)(=O)c1ccc2nc(-c3cccc(-c4ccccc4)c3C)[nH]c2c1
IC50 [2]: 7.8 µM
IC50 [3]: 5.2 µM
solubility kinetic [4]: 3.2 µM (≈ 1.2 µg/mL)
IC50 [5]: > 20 µM
IC50 [1]: 0.0218 µM

O=c1ccc(-c2nc3cc(S(=O)(=O)CC(F)(F)F)ccc3[nH]2)cn1-c1ccccc1
IC50 [2]: > 20 µM
IC50 [3]: > 20 µM
remaining at 0.5 h [8]: 93.6%
solubility kinetic [4]: 7.7 µM (≈ 3.34 µg/mL)
remaining at 0.5 h [9]: 94.7%
IC50 [5]: > 20 µM
IC50 [1]: 0.00029 µM

CCS(=O)(=O)c1ccc2[nH]c(-c3cccc(-c4ccccc4)n3)nc2c1
IC50 [1]: 0.0389 µM
